# Read-outs that look alike come from different tables or passages of the source. No end group written: not given here.
# Key:
# Assay type in all cases: cell-based
# [1] = system: HVT (turkey herpes virus); assay: HVT multiplication suppression, plaque assay in CEF cells; settings: for Ratio (relative ratio of virus titer, no peptide = 1) / Titer: HVT FC-126 strain in CEF cells; for Titer: six days; for viral multiplication suppression effect (antiviral activity), in words: HVT in CEF cells, peptide 10, 50, 100 μM, number and size of plaques
# [2] = system: MDV (Marek's disease virus); settings: for antiviral activity (viral multiplication suppression effect) against MDV, in words: MDV in CEF cells, peptide 50 and 100 μM; for Ratio / Titer: MDV type 1 Md5 strain in CEF cells; for Titer: four days
# [3] = system: MDCK (Madrin Darby Canine Kidney) cell; assay: Cytotoxicity control, MDCK cells without virus (Example 4); settings: 48 hours
# Protocol: The culture supernatant was removed from wells where a full sheet (monolayer) composed of MDCK cells was formed by the above culture. 2 mL of PBS was added to the wells and the wells were washed. This washing was repeated twice. Next, a viral solution prepared with MEM medium (no FBS added, containing 0.02% dextran and 1 μg/mL trypsin) so as to have 10^4 PFU/mL was used for inoculation at 0.1 mL per well, and culture was incubated in the presence of 5% CO2, at 34° C. for one hour, to adsorb the virus to the cells. After the incubation, was added 2 mL of MEM medium (no FBS added, containing 0.02% dextran and 1 μg/mL trypsin) containing the test peptide at a given concentration so as to have 50 μM and 10 μM final concentrations of peptide in each well after addition. Note that a well was prepared as a control plot (control), in which 2 mL of the above-mentioned MEM medium not containing peptide was added. In addition, as the control group for evaluating the cytotoxicity of the test peptide, 2 mL of MEM medium (no FBS added, containing 0.02% dextran and 1 μg/mL trypsin) containing the test peptide at a given concentration was added each to wells (with full sheet formed) containing MDCK cells to which the above-mentioned viral solution was not added (that is to say, not containing virus). Then incubation was carried out in the presence of 5% CO2 at 34° C. for 48 hours.
Substance,"Ratio (relative ratio of virus titer, no peptide = 1) ([1]; peptide 10 μM)",Titer ([1]; peptide 10 μM),"Ratio (relative ratio of virus titer, no peptide = 1) ([1]; peptide 50 μM)",Titer ([1]; peptide 50 μM),"Ratio (relative ratio of virus titer, no peptide = 1) ([1]; peptide 100 μM)",Titer ([1]; peptide 100 μM),"viral multiplication suppression effect (antiviral activity), in words [1]",also measured
"LPPLERLTLD RQARRNRRRRWR-CONH2 (LPPLERLTLDRQARRNRRRRWR-NH2) [Sample 2, NES … on the N-terminal side, NLS … on the C-terminal side; 22 residues]",0.91,8.0 × 10^4 PFU/mL,0.59,5.2 × 10^4 PFU/mL,0.57,5.0 × 10^4 PFU/mL,–,–
"RKKKRKV LALKAGLDI-CONH2 (RKKKRKVLALKAGLDI-NH2) [Sample 4, modified SV40 NLS plus modified mouse PKI NES with one leucine deleted; 16 residues]",0.95,1.8 × 10^4 PFU/mL,0.47,9.0 × 10^3 PFU/mL,0.24,4.5 × 10^3 PFU/mL,–,"antiviral activity (viral multiplication suppression effect) against MDV, in words [2]: satisfactory antiviral activity; Ratio ([2]; peptide 50 μM): 0.63; Titer ([2]; peptide 50 μM): 4.27 × 10^6 TCID50; Ratio ([2]; peptide 100 μM): 0.47; Titer ([2]; peptide 100 μM): 3.16 × 10^6 TCID50"
"RQARRNRRRRWR-CONH2 (RQARRNRRRRWR-NH2) [Comparative Sample 1, reference compound]",–,–,–,–,–,–,no viral multiplication suppression effect,–
"YGRKKRRQRRRLPPLERLTLD-NH2 [Sample 3, YGRKKRRQRRR LPPLERLTLD-CONH2]",–,–,–,–,–,–,–,cytotoxicity [3]: no cytotoxicity was observed
"RQARRNRRRRWR LPPLERLTLD-CONH2 (RQARRNRRRRWRLPPLERLTLD-NH2) [Sample 1, HIV REV-derived NLS on the N-terminal side, HIV-derived NES on the C-terminal side; 22 residues]",0.75,7.8 × 10^4 PFU/mL,0.25,2.6 × 10^4 PFU/mL,0.13,1.4 × 10^4 PFU/mL,–,"antiviral activity (viral multiplication suppression effect) against MDV, in words [2]: satisfactory antiviral activity; Ratio ([2]; peptide 50 μM): 0.36; Titer ([2]; peptide 50 μM): 2.40 × 10^6 TCID50; Ratio ([2]; peptide 100 μM): 0.1; Titer ([2]; peptide 100 μM): 6.76 × 10^5 TCID50"
"LPPLERLTLD-CONH2 (LPPLERLTLD-NH2) [Comparative Sample 2, reference compound]",–,–,–,–,–,–,no viral multiplication suppression effect,–
"RKKKRKV-CONH2 (RKKKRKV-NH2) [Comparative Sample 4, reference compound]",–,–,–,–,–,–,no viral multiplication suppression effect,–
"YGRKKRRQRRR-CONH2 (YGRKKRRQRRR-NH2) [Comparative Sample 3, reference compound]",–,–,–,–,–,–,no viral multiplication suppression effect,–

# From patent US8138146B2, “Antiviral peptide and antiviral agent” (priority 2006, dated 2012)
